Test results published in PubChem BioAssay AID248 (DTP/NCI, 2004).
Several values for one entry are separate records, joined by “and”; a condition that tells them apart may be missing. Identical values can stand only once. Toxic doses and inconclusive results are not listed. Cut-off read from the data, not from the text of the source: active = T/C of 150% or more; inactive = T/C below 125%.

System: L1210 leukemia ip in BDF1 mice, survival T/C
Experiment: NCI In Vivo Anticancer Drug Screen. Data for tumor model L1210 Leukemia (intraperitoneal) in B6D2F1 (BDF1) mice
Details: endpoint: mean survival time, higher = longer survival
Method in brief: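 Survival endpoint. Drug-treated group vs vehicle group, expressed as T divided by C. Tumor passaged by transplantation.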

[1] = dose: 100.0 mg/kg/injection, schedule: Q01DX001 (ip), vehicle: Klucel (hydroxypropylcellulose) (HPC)
[2] = dose: 200.0 mg/kg/injection, schedule: Q01DX001 (ip), vehicle: Klucel (hydroxypropylcellulose) (HPC)
[3] = dose: 400.0 mg/kg/injection, schedule: Q01DX001 (ip), vehicle: Klucel (hydroxypropylcellulose) (HPC)
[4] = dose: 100.0 mg/kg/injection, schedule: Q01DX009 (ip), vehicle: Klucel (hydroxypropylcellulose) (HPC)
[5] = dose: 200.0 mg/kg/injection, schedule: Q01DX009 (ip), vehicle: Klucel (hydroxypropylcellulose) (HPC)
[6] = dose: 400.0 mg/kg/injection, schedule: Q01DX009 (ip), vehicle: Klucel (hydroxypropylcellulose) (HPC)
[7] = dose: 100.0 mg/kg/injection, schedule: Q01DX001 (ip), vehicle: saline
[8] = dose: 200.0 mg/kg/injection, schedule: Q01DX001 (ip), vehicle: saline
[9] = dose: 400.0 mg/kg/injection, schedule: Q01DX001 (ip), vehicle: saline
[10] = dose: 75.0 mg/kg/injection, schedule: Q01DX001 (ip), vehicle: saline
[11] = dose: 100.0 mg/kg/injection, schedule: Q01DX001 (ip), vehicle: carboxymethylcellulose (CMC)
[12] = dose: 200.0 mg/kg/injection, schedule: Q01DX001 (ip), vehicle: carboxymethylcellulose (CMC)
[13] = dose: 400.0 mg/kg/injection, schedule: Q01DX001 (ip), vehicle: carboxymethylcellulose (CMC)
[14] = dose: 50.0 mg/kg/injection, schedule: Q01DX001 (ip), vehicle: saline
[15] = dose: 100.0 mg/kg/injection, schedule: Q04DX003 (ip), vehicle: Klucel (hydroxypropylcellulose) (HPC)
[16] = dose: 200.0 mg/kg/injection, schedule: Q04DX003 (ip), vehicle: Klucel (hydroxypropylcellulose) (HPC)
[17] = dose: 100.0 mg/kg/injection, schedule: Q01DX001 (ip), vehicle: saline with Tween-80
[18] = dose: 200.0 mg/kg/injection, schedule: Q01DX001 (ip), vehicle: saline with Tween-80
[19] = dose: 400.0 mg/kg/injection, schedule: Q01DX001 (ip), vehicle: saline with Tween-80

Measured: T/C

Cc1cc(CC(=S)[S-])[n+](C)c(CC(=S)S)c1
inactive: dose: 87.5 mg/kg/injection, schedule: Q01DX009 (ip), vehicle: Klucel (hydroxypropylcellulose) (HPC) 105 % of control | dose: 175.0 mg/kg/injection, schedule: Q01DX009 (ip), vehicle: Klucel (hydroxypropylcellulose) (HPC) 101 % of control

COCC(=O)O
inactive: [1] 100 % of control | dose: 100.0 mg/kg/injection, schedule: Q04DX002 (ip), vehicle: saline 102 % of control | [2] 96 % of control | dose: 200.0 mg/kg/injection, schedule: Q04DX002 (ip), vehicle: saline 94 % of control | [3] 100 % of control | dose: 400.0 mg/kg/injection, schedule: Q04DX002 (ip), vehicle: saline 97 % of control

COC(=O)c1cc(NC(=O)Nc2ccc(Cl)cc2[N+](=O)[O-])cc(C(=O)OC)c1
inactive: [4] 92 % of control | [5] 101 % of control | [6] 93 % of control

COc1cc([N+](=O)[O-])c(C)cc1Br
inactive: [7] 105 % of control | dose: 100.0 mg/kg/injection, schedule: Q04DX003 (ip), vehicle: acetone 98 % of control | [8] 107 % of control | dose: 200.0 mg/kg/injection, schedule: Q04DX003 (ip), vehicle: acetone 100 % of control | [9] 107 % of control | dose: 400.0 mg/kg/injection, schedule: Q04DX003 (ip), vehicle: acetone 95 % of control

OCC1OC(n2nnc3c(=S)nc[nH]c32)C(O)C1O (stereo unspecified)
inactive: dose: 3.3 mg/kg/injection, schedule: Q01DX009 (ip), vehicle: saline 101 % of control | dose: 5.0 mg/kg/injection, schedule: Q01DX009 (ip), vehicle: saline 95 % of control | dose: 7.5 mg/kg/injection, schedule: Q01DX009 (ip), vehicle: saline 94 % of control | dose: 11.25 mg/kg/injection, schedule: Q01DX009 (ip), vehicle: saline 101 % of control | dose: 15.0 mg/kg/injection, schedule: Q01DX001 (ip), vehicle: saline 96 % of control | dose: 18.0 mg/kg/injection, schedule: Q01DX009 (ip), vehicle: saline 106 % of control | dose: 25.0 mg/kg/injection, schedule: Q01DX001 (ip), vehicle: saline 98 % of control and 100 % of control | dose: 27.0 mg/kg/injection, schedule: Q01DX009 (ip), vehicle: saline 101 % of control | dose: 38.0 mg/kg/injection, schedule: Q01DX001 (ip), vehicle: saline 94 % of control | [10] 102 % of control | [7] 94 % of control and 98 % of control and 106 % of control | [8] 110 % of control

Cc1cccnc1NC(=O)/C=C/C(=O)O
inactive: dose: 12.5 mg/kg/injection, schedule: Q01DX009 (ip), vehicle: saline 94 % of control | dose: 25.0 mg/kg/injection, schedule: Q01DX009 (ip), vehicle: saline 100 % of control | dose: 50.0 mg/kg/injection, schedule: Q01DX009 (ip), vehicle: saline 94 % of control

CC(=O)OC1C(COS(=O)(=O)c2ccc(C)cc2)OCOC(COS(=O)(=O)c2ccc(C)cc2)C1OC(C)=O (stereo unspecified)
inactive: [1] 100 % of control | [2] 93 % of control | [3] 90 % of control

Cc1cc(Cl)ccc1OCC(=O)NCC(=O)O
inactive: dose: 100.0 mg/kg/injection, schedule: Q04DX002 (ip), vehicle: Klucel (hydroxypropylcellulose) (HPC) 90 % of control | dose: 200.0 mg/kg/injection, schedule: Q04DX002 (ip), vehicle: Klucel (hydroxypropylcellulose) (HPC) 97 % of control | dose: 400.0 mg/kg/injection, schedule: Q04DX002 (ip), vehicle: Klucel (hydroxypropylcellulose) (HPC) 105 % of control

O=C(O)C1(O)c2cc(Br)ccc2-c2ccc(Br)cc21
inactive: dose: 50.0 mg/kg/injection, schedule: Q01DX001 (ip), vehicle: carboxymethylcellulose (CMC) 100 % of control | [11] 97 % of control | [12] 100 % of control | [13] 92 % of control

CC(C)CCS(=O)(=O)O
inactive: [14] 104 % of control | [7] 104 % of control | [8] 98 % of control | [9] 102 % of control

NC(=O)N/N=C\C=N/NC(N)=O
inactive: [1] 92 % of control | [2] 92 % of control

CCN(CC)/N=C/CC(C)Nc1ccnc2cc(Cl)ccc12 (stereo unspecified)
inactive: dose: 3.12 mg/kg/injection, schedule: Q01DX009 (ip), vehicle: acetone 92 % of control | dose: 6.25 mg/kg/injection, schedule: Q01DX009 (ip), vehicle: acetone 97 % of control | dose: 12.5 mg/kg/injection, schedule: Q04DX003 (ip), vehicle: saline 93 % of control

OCC(F)(F)F
inactive: [14] 98 % of control | [7] 110 % of control | [8] 102 % of control | [9] 108 % of control

c1ccc(C[P+](Cc2ccccc2)(c2ccccc2)c2ccccc2)cc1
inactive: [10] 94 % of control

CSC(=S)NNC(=O)c1ccc(C(F)(F)F)cc1
inactive: dose: 10.0 mg/kg/injection, schedule: Q04DX003 (ip), vehicle: saline 106 % of control | dose: 20.0 mg/kg/injection, schedule: Q04DX003 (ip), vehicle: saline 106 % of control | dose: 40.0 mg/kg/injection, schedule: Q04DX003 (ip), vehicle: saline 105 % of control

O=C(c1ccccc1)c1ccc(O)cc1
inactive: [4] 93 % of control | [15] 103 % of control | [5] 93 % of control | [16] 100 % of control | [6] 100 % of control | dose: 400.0 mg/kg/injection, schedule: Q04DX003 (ip), vehicle: Klucel (hydroxypropylcellulose) (HPC) 103 % of control

CC(C)CC(=O)C=C(C(F)(F)F)C(F)(F)F
inactive: [17] 91 % of control | [18] 96 % of control | [19] 93 % of control

O=C(NC(=O)c1ccccc1)C(=O)c1ccccc1
inactive: [17] 94 % of control | [18] 105 % of control | [19] 87 % of control

O=C1c2ccccc2CC1(c1ccccc1)c1ccccc1
inactive: [11] 91 % of control | [12] 94 % of control | [13] 94 % of control

O=C1C=CC2C=CC1C(C(=O)O)C2C(=O)O (stereo unspecified) (tested in a mixture with another compound)
inactive: [17] 95 % of control | [18] 90 % of control | [19] 92 % of control

Cc1ccc(NC(=O)NCCCl)cc1NC(=O)NCCCl
inactive: dose: 50.0 mg/kg/injection, schedule: Q01DX009 (ip), vehicle: Klucel (hydroxypropylcellulose) (HPC) 106 % of control | [4] 97 % of control | [15] 94 % of control | [5] 108 % of control | [16] 95 % of control

Cc1ccc(Nc2cc(=O)[nH]c(N)n2)cc1
inactive: dose: 100.0 mg/kg/injection, schedule: Q01DX Z (ip), vehicle: methylcellulose (MC) 94 % of control

Fc1cc(N(CCCl)CCCl)ccc1C=Nc1ccc(-n2ccnc2)cc1
inactive: dose: 62.5 mg/kg/injection, schedule: Q04DX002 (ip), vehicle: Klucel (hydroxypropylcellulose) (HPC) 102 % of control | dose: 125.0 mg/kg/injection, schedule: Q04DX002 (ip), vehicle: Klucel (hydroxypropylcellulose) (HPC) 106 % of control | dose: 250.0 mg/kg/injection, schedule: Q04DX002 (ip), vehicle: Klucel (hydroxypropylcellulose) (HPC) 106 % of control
